Biological target: T1, PTGER1 (Homo sapiens, UniProt P34995)
T1 construct: purchased Promega (in-house HiBiT-GPCR construct library, NanoBRET)
T1 sequence (P34995 1-402): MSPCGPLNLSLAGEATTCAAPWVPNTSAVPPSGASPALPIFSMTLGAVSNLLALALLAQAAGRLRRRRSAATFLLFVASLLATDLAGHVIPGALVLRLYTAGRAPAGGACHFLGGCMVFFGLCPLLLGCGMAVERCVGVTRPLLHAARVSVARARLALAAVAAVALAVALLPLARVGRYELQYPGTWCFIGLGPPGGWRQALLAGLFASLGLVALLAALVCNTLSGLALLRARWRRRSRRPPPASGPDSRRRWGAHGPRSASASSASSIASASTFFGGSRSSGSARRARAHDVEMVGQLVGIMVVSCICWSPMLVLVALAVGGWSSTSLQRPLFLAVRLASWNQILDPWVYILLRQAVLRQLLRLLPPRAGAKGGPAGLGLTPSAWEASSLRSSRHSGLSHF
Assay: NanoBRET screen HiBiT-PTGER1 in HEK293
Format: binding
Experimental: Each tracer candidate was screened across the entire library of HiBiT-GPCR constructs using NanoBRET as the detection modality. As depicted in Figure 4A, the specificity of interactions was evaluated through decrease in BRET due to competitive displacement of a bound tracer by excess parental compound. Each tracer was analyzed for binding to each HiBiT-GPCR fusion in the absence and in the presence of competing parental compound. Briefly, HEK293 cells were transfected with HiBiT-GPCR constructs diluted into promoterless DNA to reduce expression and maximize translocation to the cell surface. Each tracer candidate was then screened at concentrations of 1 μM and 0.1 μM across cells expressing these fusions. Cells were treated for 1.5 h with tracer either alone or in the presence of 20 μM competing parental compound (i.e., control). BRET was measured upon addition of purified LgBiT and subsequent complementation with HiBiT genetically fused to a GPCR. The specificity of interactions was assessed through a decrease in BRET signal due to competitive displacement of the bound tracer. To further gauge the robustness of these interactions, the fold response over the control (i.e., BRETtracer/BRETcontrol) was calculated. We chose a 1.5-fold response, which translates to ≥7-fold signal over noise as the minimal threshold required to score an interaction as positive. […]. Below we highlight the screening results obtained for our exemplary fluorescent tracers based on Clozapine, Amitriptyline and AZD1283.
HiBiT-GPCR DNA constructs were diluted in 10 mM Tris pH 8 to a final concentration of 0.01 μg/μL, arrayed in 96-well plates and stored at −20 °C. For transfection, HEK293 cells were suspended in Opti-MEM (without phenol red) supplemented with 2% fetal bovine serum (Seradigm) and 100 units/mL penicillin–streptomycin (Gibco) at a final concentration of 220,000 cells/mL and dispensed into white 96-well plates at 90 μL/well. Subsequent transfections and screens were carried using an Agilent Bravo Automated Liquid Handling Platform. First, the 96-well HiBiT DNA arrays were diluted 25-fold in Opti-MEM (without serum or phenol red) to a final concentration of 0.0004 μg/μL and 20 μL of the diluted DNAs were transferred into new 96-well plates. Next, promoterless carrier DNA (1 μg/μL) was diluted 25-fold (0.04 μg/μL) and then dispensed into the diluted arrays at 20 μL/well. Following brief mixing, Viafect transfection reagent (Promega) diluted 16-fold into Opti-MEM was dispensed into the plates at 40 μL/well. After mixing by pipetting, plates were incubated for 10 min on the pipetting station deck. The DNA-transfection reagent complexes were then added to plates containing cells. To facilitate the screen, 10 μL of DNA-transfection reagent complexes were added in duplicates to the top 4 and bottom 4 rows, resulting in two identical 48-well arrays per plate. Plates with transfected cells were incubated for 18–20 h at 37 °C/5% CO2. A screen of each tracer across the entire library using two different concentrations requires duplicate plates of transfected cells. Depending on the number of tracers being screened, transfections can be scaled up using the same ratios. The next day, for each tracer, four 20× screening solutions in tracer dilution buffer (Promega) were prepared: two duplicates at final concentration of 20 μM and two duplicates at a final concentration of 2 μM. A competing unmodified compound was added to one of each duplicate at a final concentration of 400 μM. The four resulting solutions were diluted 4-fold in Opti-MEM without serum or phenol red to generate 5× solutions (5 µM and 0.5 µM tracer +/− 100 μM competing compound). To screen the library, a BioTek MultiFlo FX liquid dispenser was used to dispense 22.5 µL of tracer solution to the top 4 rows and 22.5 µL tracer + competing compound solution to the 4 bottom rows. Plates were briefly mixed on an orbital shaker and incubated for 1.5 h at room temperature. […]

SMILES | NanoBRET Fold Response (PTGER1, tracer 0.1μM) | NanoBRET Fold Response (PTGER1, tracer 1μM) | other results
CCOC(=O)c1cc(C#N)c(N2CCC(C(=O)NS(=O)(=O)Cc3ccccc3/C=C/C(=O)NCCNC(=O)CCc3ccc4n3[B-](F)(F)[N+]3=C(c5ccc[nH]5)C=CC3=C4)CC2)nc1C [AZD1283-1-NB590] |  |  | NanoBRET Fold Response (PTGER1, 0.1μM): 1.17; NanoBRET Fold Response (PTGER1, 1μM): 1.14
N#CN=C(NCCCOc1cccc(CN2CCCCC2)c1)NCCNC(=O)CCOCCOCCOCCOCCNC(=O)CCc1ccc2n1[B-](F)(F)[N+]1=C(c3ccc[nH]3)C=CC1=C2 [Aminopotentidine-2-NB590] | 0.97 | 0.95 | 
CN(C)CCC=C1c2ccccc2CCc2ccc(C(=O)NCCNC(=O)CCOCCOCCOCCOCCNC(=O)CCc3ccc4n3[B-](F)(F)[N+]3=C(c5ccc[nH]5)C=CC3=C4)cc21 [Amitriptyline-b-2-NB590] |  |  | NanoBRET Fold Response (tracer at 0.1μM): 1.07; NanoBRET Fold Response (tracer at 1μM): 1.01
COc1ccc2c(n1)c(CCNC(C)=O)cn2CCNC(=O)CCc1ccc2n1[B-](F)(F)[N+]1=C(c3ccc[nH]3)C=CC1=C2 [Azamelatonin-1-NB590] |  |  | NanoBRET Fold Response (0.1μM tracer): 1.20; NanoBRET Fold Response (1μM tracer): 0.95
COc1ccc2[nH]c(-c3ccc(CNC(=O)CCOCCOCCOCCOCCNC(=O)CCc4ccc5n4[B-](F)(F)[N+]4=C(c6ccc[nH]6)C=CC4=C5)cc3)c(CCNC(C)=O)c2n1 [AzomelatoninICO9-2-NB590] |  |  | NanoBRET Fold Response (0.1μM tracer): 0.77; NanoBRET Fold Response (1μM tracer): 0.95
O=C(CCOCCOCCOCCOCCNC(=O)CCc1ccc2n1[B-](F)(F)[N+]1=C(c3ccc[nH]3)C=CC1=C2)NCCCN1CCN(C2=Nc3cc(Cl)ccc3Nc3ccccc32)CC1 [Clozapine-a-2-NB590] |  |  | NanoBRET Fold Response (PTGER1, 0.1μM tracer): 1.03; NanoBRET Fold Response (PTGER1, 1μM tracer): 1.02
CN1CCN(C2=Nc3cc(Cl)ccc3Nc3ccc(CNC(=O)CCOCCOCCOCCOCCNC(=O)CCc4ccc5n4[B-](F)(F)[N+]4=C(c6ccc[nH]6)C=CC4=C5)cc32)CC1 [Clozapine-b-2-NB590] |  |  | NanoBRET Fold Response (PTGER1, 0.1μM tracer): 1.01; NanoBRET Fold Response (PTGER1, 1μM tracer): 0.97
CN1CCN(C2=Nc3cc(Cl)ccc3N(CC(=O)NCCOCCOCCOCCOCCNC(=O)CCc3ccc4n3[B-](F)(F)[N+]3=C(c5ccc[nH]5)C=CC3=C4)c3ccccc32)CC1 [Clozapine-c-2-NB590] |  |  | NanoBRET Fold Response (PTGER1, 0.1μM tracer): 1.00; NanoBRET Fold Response (PTGER1, 1μM tracer): 0.92
O=C(CCOCCOCCOCCOCCNC(=O)CCc1ccc2n1[B-](F)(F)[N+]1=C(c3ccc[nH]3)C=CC1=C2)NCCCN1CCN(C2=Nc3ccccc3Oc3ccc(Cl)cc32)CC1 [Loxapine-a-2-NB590] | 1.09 | 1.08 | 
COc1ccccc1N1CCN(CCCCN2C(=O)c3ccc(CNC(=O)CCOCCOCCOCCOCCNC(=O)CCc4ccc5n4[B-](F)(F)[N+]4=C(c6ccc[nH]6)C=CC4=C5)cc3C2=O)CC1 [NAN-190-2-NB590] | 0.93 | 1.04 | 
COc1ccccc1N1CCN(CCCCN2C(=O)c3ccc(CNC(=O)CCOCCNC(=O)c4ccc(CNC(=O)CCc5ccc6n5[B-](F)(F)[N+]5=C(c7ccc[nH]7)C=CC5=C6)cc4)cc3C2=O)CC1 [NAN-190-3-NB590] | 0.89 | 1.11 | 
O=C(CCc1ccc2n1[B-](F)(F)[N+]1=C(c3ccc[nH]3)C=CC1=C2)NCc1ccc(C(=O)NCCOCCC(=O)N[C@@H]2CC[C@@]3(O)[C@H]4Cc5ccc(O)c6c5[C@@]3(CCN4CC3CC3)[C@H]2O6)cc1 [Naltrexone-3-NB590] | 1.01 | 1.02 | 
Cc1cc2c(s1)Nc1ccccc1N=C2N1CCN(CCCNC(=O)CCOCCOCCOCCOCCNC(=O)CCc2ccc3n2[B-](F)(F)[N+]2=C(c4ccc[nH]4)C=CC2=C3)CC1 [Olanzapine-a-2-NB590] | 1.03 | 1.04 | 
O=C(CCc1ccc2n1[B-](F)(F)[N+]1=C(c3ccc[nH]3)C=CC1=C2)NCc1ccc(C(=O)NCCOCCOCCNCC(O)COc2cccc3ccccc23)cc1 (centres unmarked) [Propranolol-3-NB590] |  |  | NanoBRET Fold Response (PTGER1, 0.1μM): 1.07; NanoBRET Fold Response (PTGER1, 1μM): 1.06
O=C(CCc1ccc2n1[B-](F)(F)[N+]1=C(c3ccc[nH]3)C=CC1=C2)NCCOCCOCCNC(=O)OCCOCCN1CCN(C2=Nc3ccccc3Sc3ccccc32)CC1 [Quetiapine-a-2-NB590] | 1.07 | 1.05 | 
Cc1nc2n(c(=O)c1CCN1CCC(c3noc4cc(F)ccc34)CC1)CCCC2OC(=O)NCCOCCOCCOCCOCCNC(=O)CCc1ccc2n1[B-](F)(F)[N+]1=C(c3ccc[nH]3)C=CC1=C2 (centres unmarked) [Risperidone-2-NB590] | 1.04 | 1.07 | 
CC(C)N(CC[C@H](c1ccccc1)c1cc(CCNC(=O)CCOCCOCCOCCOCCNC(=O)CCc2ccc3n2[B-](F)(F)[N+]2=C(c4ccc[nH]4)C=CC2=C3)ccc1O)C(C)C [Tolterodine-2-NB590] | 1.00 | 1.23 | 
CC(C)N(CC[C@H](c1ccccc1)c1cc(CCNC(=O)c2ccc(CNC(=O)CCc3ccc4n3[B-](F)(F)[N+]3=C(c5ccc[nH]5)C=CC3=C4)cc2)ccc1O)C(C)C [Tolterodine-BZ-NB590] | 1.03 | 1.03 | 
CCCn1c(=O)c2[nH]c(-c3ccc(OCC(=O)NCCNC(=O)CCOCCNC(=O)c4ccc(CNC(=O)CCc5ccc6n5[B-](F)(F)[N+]5=C(c7ccc[nH]7)C=CC5=C6)cc4)cc3)nc2n(CCC)c1=O [XAC-3-NB590] | 1.06 | 1.16 | 

— article PMC8151276, “An Integrated Approach toward NanoBRET Tracers for Analysis of GPCR Ligand Engagement” (Molecules, 2021)
